Data: ChEMBL document CHEMBL5303304, “EUbOPEN Chemogenomics Library - IncuCyte” (2023)

Legend:
Type in all cases: toxicity, cell-based
[1] = system: HEK-293T; experiment: Incucyte cell viability with HEK293T; details: human, 10 µM, compound concentration 10 uM
[2] = system: Fibroblast; experiment: Incucyte cell viability with human fibroblast; details: 10 µM, compound concentration 10 uM
[3] = system: U2OS; experiment: Incucyte cell viability with U2OS; details: human, 10 µM, compound concentration 10 uM
Note: unitless GR value; below 1 slowed growth and below 0 cell loss.

CC(C)c1nc2c(c3c1[C@H](c1ccc(C(F)(F)F)cc1)OC31CCOCC1)[C@H](O)CC(C)(C)C2
Growth Rate ([1]; 0 h, replicate number 2): -0.1
Growth Rate ([1]; 6 h, replicate number 1): -0.63
Growth Rate ([1]; 12 h, replicate number 1): 0.02
Growth Rate ([1]; 18 h, replicate number 1): 0.41
Growth Rate ([1]; 18 h, replicate number 2): 0.84
Growth Rate ([1]; 24 h, replicate number 1): 0.62
Growth Rate ([1]; 24 h, replicate number 2): 0.94
Growth Rate ([2]; 0 h, replicate number 1): -1
Growth Rate ([2]; 6 h, replicate number 1): -0.78
Growth Rate ([2]; 6 h, replicate number 2): -0.98
Growth Rate ([2]; 12 h, replicate number 1): -0.62
Growth Rate ([2]; 12 h, replicate number 2): -0.47
Growth Rate ([2]; 18 h, replicate number 1): -0.17
Growth Rate ([2]; 18 h, replicate number 2): -0.05
Growth Rate ([2]; 24 h, replicate number 1): 0.08
Growth Rate ([2]; 24 h, replicate number 2): 0.1
Growth Rate ([3]; 0 h, replicate number 1): -0.17
Growth Rate ([3]; 6 h, replicate number 1): 0.38
Growth Rate ([3]; 12 h, replicate number 1): 0.82
Growth Rate ([3]; 12 h, replicate number 2): 0.84
Growth Rate ([3]; 18 h, replicate number 1): 0.93
Growth Rate ([3]; 24 h, replicate number 1): 0.88

O=C([O-])c1cc2cc(Cc3cccnc3)ccc2o1.[Na+]
Growth Rate ([1]; 0 h, replicate number 2): 0.2
Growth Rate ([1]; 6 h, replicate number 1): 0.1
Growth Rate ([1]; 6 h, replicate number 2): 0.83
Growth Rate ([1]; 12 h, replicate number 1): 0.56
Growth Rate ([2]; 6 h, replicate number 1): 0.42
Growth Rate ([2]; 12 h, replicate number 2): 0.64
Growth Rate ([3]; 0 h, replicate number 1): -0.13
Growth Rate ([3]; 6 h, replicate number 1): 0.77
Growth Rate ([3]; 12 h, replicate number 1): 0.4
Growth Rate ([3]; 12 h, replicate number 2): 0.98
Growth Rate ([3]; 18 h, replicate number 1): 1
Growth Rate ([3]; 24 h, replicate number 1): 0.71

O=C(Nc1ccc(N2CCC(C(=O)N3CCOCC3)CC2)cc1)c1cnc(Oc2ccccc2)nc1
Growth Rate ([1]; 0 h, replicate number 2): -0.09
Growth Rate ([1]; 6 h, replicate number 1): -0.02
Growth Rate ([1]; 12 h, replicate number 1): 0.64
Growth Rate ([1]; 18 h, replicate number 1): 0.92
Growth Rate ([1]; 24 h, replicate number 1): 0.95
Growth Rate ([2]; 0 h, replicate number 2): -0.91
Growth Rate ([2]; 6 h, replicate number 1): 0.98
Growth Rate ([2]; 12 h, replicate number 2): 0.75
Growth Rate ([2]; 18 h, replicate number 1): 0.95
Growth Rate ([2]; 18 h, replicate number 2): 0.87
Growth Rate ([2]; 24 h, replicate number 1): 0.99
Growth Rate ([2]; 24 h, replicate number 2): 0.78
Growth Rate ([3]; 6 h, replicate number 1): 0.96

CCOC(=O)CS(=O)(=O)c1ccc([C@@H](CO)NC(=O)c2cc3c(Cl)c(Cl)c(C)cc3n2C)cc1
Growth Rate ([1]; 0 h, replicate number 2): 0.13
Growth Rate ([2]; 0 h, replicate number 1): -1
Growth Rate ([2]; 6 h, replicate number 2): -1
Growth Rate ([2]; 12 h, replicate number 1): -0.98
Growth Rate ([2]; 12 h, replicate number 2): -0.95
Growth Rate ([2]; 18 h, replicate number 1): -0.91
Growth Rate ([2]; 18 h, replicate number 2): -0.85
Growth Rate ([2]; 24 h, replicate number 1): -0.81
Growth Rate ([2]; 24 h, replicate number 2): -0.7
Growth Rate ([3]; 0 h, replicate number 1): -0.21
Growth Rate ([3]; 6 h, replicate number 1): -0.2
Growth Rate ([3]; 6 h, replicate number 2): 1
Growth Rate ([3]; 12 h, replicate number 1): -0.25
Growth Rate ([3]; 12 h, replicate number 2): 0.52
Growth Rate ([3]; 18 h, replicate number 1): -0.31
Growth Rate ([3]; 18 h, replicate number 2): 0.87
Growth Rate ([3]; 24 h, replicate number 1): -0.16
Growth Rate ([3]; 24 h, replicate number 2): 0.97

CC1(C)Oc2ncnc(N)c2N=C1c1ccc([C@H]2CC[C@H](CC(=O)O)CC2)cc1
Growth Rate ([1]; 0 h, replicate number 2): -0.22
Growth Rate ([1]; 6 h, replicate number 1): 0.77
Growth Rate ([1]; 6 h, replicate number 2): 0.36
Growth Rate ([1]; 18 h, replicate number 1): 0.89
Growth Rate ([1]; 24 h, replicate number 1): 0.94
Growth Rate ([1]; 24 h, replicate number 2): 0.99
Growth Rate ([2]; 0 h, replicate number 1): -0.99
Growth Rate ([2]; 0 h, replicate number 2): -0.9
Growth Rate ([2]; 6 h, replicate number 1): 0.56
Growth Rate ([2]; 12 h, replicate number 1): 0.81
Growth Rate ([2]; 24 h, replicate number 2): 0.97
Growth Rate ([3]; 0 h, replicate number 1): 0.58
Growth Rate ([3]; 0 h, replicate number 2): -0.4
Growth Rate ([3]; 6 h, replicate number 1): 0.57
Growth Rate ([3]; 6 h, replicate number 2): 0.92
Growth Rate ([3]; 12 h, replicate number 2): 0.89
Growth Rate ([3]; 18 h, replicate number 1): 0.85
Growth Rate ([3]; 24 h, replicate number 1): 0.96

O=C1CCC(N2Cc3cc(CNC(=O)C(F)(F)c4ccc(Cl)cc4)ccc3C2=O)C(=O)N1 (stereo unspecified)
Growth Rate ([1]; 0 h, replicate number 2): 0.81
Growth Rate ([1]; 12 h, replicate number 1): 0.83
Growth Rate ([1]; 18 h, replicate number 1): 0.81
Growth Rate ([1]; 18 h, replicate number 2): 1
Growth Rate ([1]; 24 h, replicate number 1): 0.89
Growth Rate ([2]; 12 h, replicate number 2): 0.51
Growth Rate ([2]; 18 h, replicate number 2): 0.98
Growth Rate ([2]; 24 h, replicate number 2): 0.99
Growth Rate ([3]; 0 h, replicate number 2): 0.39
Growth Rate ([3]; 6 h, replicate number 1): 0.81
Growth Rate ([3]; 6 h, replicate number 2): 0.89
Growth Rate ([3]; 12 h, replicate number 1): 0.97
Growth Rate ([3]; 12 h, replicate number 2): 0.98
Growth Rate ([3]; 24 h, replicate number 1): 0.99
Growth Rate ([3]; 24 h, replicate number 2): 0.85

CO[C@H](C)CN1CC[C@]2(C)c3cccc(O)c3C[C@H]1C2(C)C.Cl
Growth Rate ([1]; 0 h, replicate number 2): -0.19
Growth Rate ([2]; 0 h, replicate number 1): -1
Growth Rate ([2]; 0 h, replicate number 2): -0.48
Growth Rate ([2]; 24 h, replicate number 1): 0.9
Growth Rate ([3]; 0 h, replicate number 2): -0.73
Growth Rate ([3]; 6 h, replicate number 1): 0.44
Growth Rate ([3]; 6 h, replicate number 2): 0.57
Growth Rate ([3]; 12 h, replicate number 1): 0.7
Growth Rate ([3]; 12 h, replicate number 2): 0.71
Growth Rate ([3]; 18 h, replicate number 1): 0.92
Growth Rate ([3]; 18 h, replicate number 2): 0.84
Growth Rate ([3]; 24 h, replicate number 1): 0.84
Growth Rate ([3]; 24 h, replicate number 2): 0.92

Cc1cc(CN)cc(C)c1-c1ncn(C)c1-c1ccnc2cc(F)ccc12.Cl
Growth Rate ([1]; 0 h, replicate number 2): 0.04
Growth Rate ([1]; 6 h, replicate number 1): 0.92
Growth Rate ([2]; 0 h, replicate number 1): -1
Growth Rate ([2]; 0 h, replicate number 2): -0.39
Growth Rate ([2]; 6 h, replicate number 1): 0.02
Growth Rate ([2]; 6 h, replicate number 2): -0.26
Growth Rate ([2]; 12 h, replicate number 1): 0.77
Growth Rate ([2]; 18 h, replicate number 1): 0.6
Growth Rate ([2]; 18 h, replicate number 2): 0.81
Growth Rate ([2]; 24 h, replicate number 1): 0.89
Growth Rate ([2]; 24 h, replicate number 2): 0.96
Growth Rate ([3]; 6 h, replicate number 1): 0.34
Growth Rate ([3]; 6 h, replicate number 2): 0.85
Growth Rate ([3]; 12 h, replicate number 1): 0.92

CC1(C)CCN(C(=O)C2CN(c3c4c(nc5ccnn35)CCNCC4)C2)C1.O=C(O)C(F)(F)F
Growth Rate ([1]; 0 h, replicate number 2): 0.61
Growth Rate ([1]; 6 h, replicate number 1): -0.5
Growth Rate ([1]; 12 h, replicate number 1): 0.45
Growth Rate ([1]; 18 h, replicate number 1): 0.87
Growth Rate ([1]; 24 h, replicate number 1): 0.96
Growth Rate ([2]; 12 h, replicate number 2): 0.82
Growth Rate ([2]; 18 h, replicate number 2): 0.86
Growth Rate ([2]; 24 h, replicate number 1): 0.98
Growth Rate ([2]; 24 h, replicate number 2): 0.96
Growth Rate ([3]; 6 h, replicate number 1): 0.78

CN(C)[C@H]1CCN(c2cc(C(F)(F)F)c(C#N)c(Nc3cccc(CCC(=O)O)c3)n2)C1.O=C(O)C(F)(F)F
Growth Rate ([1]; 0 h, replicate number 2): 0.79
Growth Rate ([1]; 6 h, replicate number 1): 0.73
Growth Rate ([1]; 12 h, replicate number 1): 0.95
Growth Rate ([1]; 18 h, replicate number 1): 0.94
Growth Rate ([2]; 6 h, replicate number 1): 0.81
Growth Rate ([2]; 6 h, replicate number 2): -0.53
Growth Rate ([2]; 12 h, replicate number 2): 0.75
Growth Rate ([2]; 18 h, replicate number 1): 0.99
Growth Rate ([2]; 18 h, replicate number 2): 0.93
Growth Rate ([2]; 24 h, replicate number 2): 0.72
Growth Rate ([3]; 0 h, replicate number 1): 0.61
Growth Rate ([3]; 0 h, replicate number 2): 0.54
Growth Rate ([3]; 6 h, replicate number 1): 0.63
Growth Rate ([3]; 6 h, replicate number 2): 0.38
Growth Rate ([3]; 12 h, replicate number 2): 0.78
Growth Rate ([3]; 18 h, replicate number 2): 0.89
Growth Rate ([3]; 24 h, replicate number 2): 0.88

Cn1c(C(=O)N[C@@H](CO)c2ccc(C(=O)O)cc2)cc2cc(Cl)ccc21
Growth Rate ([1]; 0 h, replicate number 2): 0.28
Growth Rate ([1]; 6 h, replicate number 1): 0.78
Growth Rate ([1]; 24 h, replicate number 1): 0.96
Growth Rate ([2]; 0 h, replicate number 2): 0.3
Growth Rate ([2]; 6 h, replicate number 2): -0.6
Growth Rate ([2]; 12 h, replicate number 2): 0.49
Growth Rate ([2]; 18 h, replicate number 2): 0.69
Growth Rate ([2]; 24 h, replicate number 1): 1
Growth Rate ([2]; 24 h, replicate number 2): 0.68
Growth Rate ([3]; 0 h, replicate number 1): 0.76
Growth Rate ([3]; 6 h, replicate number 1): 0.58
Growth Rate ([3]; 24 h, replicate number 1): 0.92

Cl.Cl.N=C(N)NCCC[C@H](NC(=O)CC1(CC(=O)N2CCN(C3c4ccccc4NC(=O)c4ccccc43)CC2)CCCC1)C(=O)NCCn1c(=O)n(-c2ccccc2)n(-c2ccccc2)c1=O (stereo partly specified)
Growth Rate ([1]; 0 h, replicate number 2): -0.2
Growth Rate ([1]; 6 h, replicate number 1): 0.47
Growth Rate ([2]; 0 h, replicate number 2): 0.97
Growth Rate ([2]; 6 h, replicate number 1): 0.27
Growth Rate ([2]; 12 h, replicate number 1): 0.91
Growth Rate ([2]; 18 h, replicate number 1): 0.59
Growth Rate ([2]; 24 h, replicate number 1): 0.6
Growth Rate ([3]; 0 h, replicate number 1): 0.38
Growth Rate ([3]; 0 h, replicate number 2): 0.1
Growth Rate ([3]; 6 h, replicate number 1): 0.65
Growth Rate ([3]; 6 h, replicate number 2): 0.78
Growth Rate ([3]; 12 h, replicate number 1): 0.69
Growth Rate ([3]; 12 h, replicate number 2): 0.78
Growth Rate ([3]; 18 h, replicate number 1): 0.83
Growth Rate ([3]; 18 h, replicate number 2): 0.87
Growth Rate ([3]; 24 h, replicate number 1): 0.73
Growth Rate ([3]; 24 h, replicate number 2): 0.99
